We go through 3 molecules from patent US7202244B2, “Chk-1 inhibitors” (Millennium Pharmaceuticals, Inc., priority 2002, dated 2007).

One test concerns the target T1, CHK-1 (Homo sapiens, UniProt O14757).
T1 sequence (O14757 1-476): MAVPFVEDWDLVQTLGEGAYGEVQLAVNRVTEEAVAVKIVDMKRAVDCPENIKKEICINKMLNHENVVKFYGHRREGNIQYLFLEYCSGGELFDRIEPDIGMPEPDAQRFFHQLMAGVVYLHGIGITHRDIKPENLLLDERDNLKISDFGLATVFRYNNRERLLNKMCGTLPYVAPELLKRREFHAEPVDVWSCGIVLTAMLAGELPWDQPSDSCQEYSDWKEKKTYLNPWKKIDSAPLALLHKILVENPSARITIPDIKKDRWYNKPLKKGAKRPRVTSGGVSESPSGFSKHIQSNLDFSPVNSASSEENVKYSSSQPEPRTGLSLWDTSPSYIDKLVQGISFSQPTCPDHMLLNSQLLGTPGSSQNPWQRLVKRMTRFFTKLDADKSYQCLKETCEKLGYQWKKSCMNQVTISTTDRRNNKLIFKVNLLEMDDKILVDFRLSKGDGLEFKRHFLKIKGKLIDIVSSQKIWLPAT
Kind of test: IC50 for the test compound versus CHK-1 (Table 2, assay format not stated). In kind it is biochemical.

Test [1] has as its system HT29, HCT116 or other cells. In words: WST assay: enhancement of cell killing by DNA damaging agents. Particulars: shift of 1 = no shift; for Shift 156 nM: Chk1 inhibitor fixed at 156 nM with DNA damaging agent titration; for Shift 313 nM: Chk1 inhibitor fixed at 313 nM with DNA damaging agent titration; for Shift 625 nM: Chk1 inhibitor fixed at 625 nM with DNA damaging agent titration; for Shift 1.25 μM: Chk1 inhibitor fixed at 1.25 μM with DNA damaging agent titration; for Shift 2.5 μM: Chk1 inhibitor fixed at 2.5 μM with DNA damaging agent titration. It counts as cell-based. How it is done:
HT29, HCT116 (5000 cells/well) or other cells were seeded (75 ul) to 96 well clear bottom plates at densities which provide linear growth curves for 72 hours. Cells were cultured under sterile conditions in appropriate media and for HT29 & HCT116 this media was McCoy's 5A containing 10% Fetal Bovine Serum (FBS). Following the initial seeding of cells they are incubated at 37° C., 5% CO2 from 17 to 24 hours at which time the appropriate DNA damaging agents (camptothecins, 5-fluorouracil and etoposid) are added at increasing concentrations to a point which is capable of causing at least 80% cell killing with in 48 hours. Final volume of all DNA damaging agent & compound additions was 25 ul and assays contained <1% DMSO final. At the same time as DNA Damaging agent addition, Chk1 inhibitor was added at fixed concentrations to each DNA damaging agent titration to observe enhancement of cell killing. In addition, toxicity of each Chk1 inhibitor alone was observed. By doing this over a range of Chk1 inhibitor concentrations we were able to identify compounds which maximally enhance (2–30 fold) cell killing by each DNA damaging agent and generated ≦80% cell killing by the compound alone. Cell viability/cell killing under the conditions described above was determined by addition WST reagent (Roche) according to the manufacturer at 47 hours following DNA damage & Chk1 inhibitor addition and following a 3.5 hour or 2.5 hour incubation at 37 C, 5% CO2, OD450 was measured.

The target in test [2] is T2, GST-Chk1 (recombinant human Chk1) (Homo sapiens, UniProt O14757).
T2 construct: made in house; host or cells: insect cells (Bac-to-Bac baculovirus system)
T2 sequence (O14757 1-476): T1 sequence (O14757 1-476)
Kind of test: Chk1 FlashPlate kinase assay. It counts as biochemical. Particulars: 1 uM ATP. How it is done:
Recombinant human Chk1 was expressed as a fusion protein with glutathione S-transferase at the amino-terminus (GST-Chk1) using standard baculovirus vectors and (Bac-to-Bac®) insect cell expression system purchased from GIBCO™ Invitrogen. Recombinant protein expressed in insect cells was purified using glutathione sepharose (Amersham Biotech) using standard procedures described by the manufacturer.
Chk1 FlashPlate® Kinase Assay:
Reactions were incubated for 30 minutes at room temperature, terminated with 50 ul of 50 mM EDTA and 90 ul were transferred to streptavidin-coated FlashPlates® (NEN) and incubated for 1 hour at room temperature. Plates were washed with phosphate buffered salaine containing 0.01% Tween-20 and 10 mM sodium pyrophosphate. Plates were dried, sealed with Topseal™ (NEN) and amount of ^33P incorporated into the peptide substate measure using a Packard Topcount® NXT™ scintillation counter with standard settings.
Compounds of the present invention were tested in the Chk1 FlashPlate® kinase assay described above.

The term IC50 denotes the concentration needed to halve the response being measured. `CN(C)CCCOc1ccc(Cl)cc1NC(=O)Nc1cnccn1` [Example 1, 1-[5-Chloro-2-(3-dimethylamino-propoxy)-phenyl]-3-pyrazin-2-yl-urea] returned an IC50 on CHK-1 of 3.5 nM. Moreover, in test [1], the “Shift 156 nM” value is listed as 1, the “Shift 313 nM” value turned out to be 1.2, the “Shift 625 nM” value came to 1.6 and the “Shift 1.25 μM” value came to 2.2. Further, the “Shift 2.5 μM” value in test [1] was determined as 3.4. The IC50 in test [2] was under 100 nM.

The molecule `CN(C)CCOc1ccc(Cl)cc1NC(=O)Nc1cnccn1` [Example 2, 1-[5-Chloro-2-(2-dimethylamino-ethoxy)-phenyl]-3-pyrazin-2-yl-urea] gave an IC50 on CHK-1 of 8 nM. In test [1], the “Shift 156 nM” value was 1, the “Shift 313 nM” value was found to be 1.1, the “Shift 625 nM” value is 1.5 and the “Shift 1.25 μM” value turned out to be 1.9. The “Shift 2.5 μM” value in test [1] is 2.6. Besides, the IC50 in test [2] was under 100 nM.

With `Cc1cnc(NC(=O)Nc2cc(Cl)ccc2OCCCN(C)C)cn1` [Example 25, 1-[5-Chloro-2-(3-dimethylamino-propoxy)-phenyl]-3-(5-methyl-pyrazin-2-yl)-urea], the IC50 at CHK-1 amounted to 4.5 nM. Also, in test [1], the “Shift 156 nM” value was found to be 1.1, the “Shift 313 nM” value is 1.7, the “Shift 625 nM” value is listed as 2.5 and the “Shift 1.25 μM” value worked out at 3.3. In test [1], the “Shift 2.5 μM” value is 4.4. Besides, in test [2], the IC50 is under 100 nM.
